Measurements as given in PubChem BioAssay AID256 (DTP/NCI, 2004).
“And” between values parts separate entries of the source, which are not always exact repeats. Equal entries are not always repeated. Toxic doses and inconclusive results are not listed.

Test system: CD2F1 mice, L1210 leukemia ip, survival T/C
Assay: NCI In Vivo Anticancer Drug Screen. Data for tumor model L1210 Leukemia (intraperitoneal) in CD2F1 (CDF1) mice
Settings: higher = longer survival
Outline: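 Each value reflects a quotient of treated over vehicle control outcomes in mice with a transplanted tumor.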

[1] = endpoint: mean survival time, dose: 100.0 mg/kg/injection, schedule: Q04DX003 (ip), vehicle: saline with Tween-80
[2] = endpoint: mean survival time, dose: 200.0 mg/kg/injection, schedule: Q04DX003 (ip), vehicle: saline with Tween-80
[3] = endpoint: mean survival time, dose: 400.0 mg/kg/injection, schedule: Q04DX003 (ip), vehicle: saline with Tween-80
[4] = endpoint: mean survival time, dose: 100.0 mg/kg/injection, schedule: Q01DX009 (ip), vehicle: saline with Tween-80
[5] = endpoint: mean survival time, dose: 200.0 mg/kg/injection, schedule: Q01DX009 (ip), vehicle: saline with Tween-80
[6] = endpoint: mean survival time, dose: 12.5 mg/kg/injection, schedule: Q01DX009 (ip), vehicle: other
[7] = endpoint: mean survival time, dose: 25.0 mg/kg/injection, schedule: Q01DX009 (ip), vehicle: other

O=c1[nH]c2ccc(Br)cc2c2ccccc12
T/C (endpoint: mean survival time, dose: 100.0 mg/kg/injection, schedule: Q01DX001 (ip), vehicle: saline): 90 % of control
T/C (endpoint: mean survival time, dose: 200.0 mg/kg/injection, schedule: Q01DX001 (ip), vehicle: saline): 94 % of control
T/C (endpoint: mean survival time, dose: 400.0 mg/kg/injection, schedule: Q01DX001 (ip), vehicle: saline): 100 % of control

Cc1ccnc(-n2c(N)cc(=O)[nH]c2=S)c1
T/C [1]: 97 % of control
T/C [2]: 97 % of control
T/C [3]: 96 % of control

CN1CCCC(OC(=O)N(C)C)C1 (configuration not stated)
T/C (endpoint: mean survival time, dose: 100.0 mg/kg/injection, schedule: Q01DX009 (ip), vehicle: saline): 96 % of control
T/C (endpoint: mean survival time, dose: 200.0 mg/kg/injection, schedule: Q01DX009 (ip), vehicle: saline): 98 % of control

CCOC(=O)C1CC1C(=O)OC (configuration not stated)
T/C (endpoint: mean survival time, dose: 50.0 mg/kg/injection, schedule: Q01DX009 (ip), vehicle: saline with Tween-80): 90 % of control
T/C [4]: 88 % of control
T/C [5]: 92 % of control

Nc1nc(N)c2c(=O)c(CNc3ccc(C(=O)NC(CCC(=O)O)C(=O)O)cc3)c[nH]c2n1 (configuration not stated)
T/C (endpoint: mean survival time, dose: 0.25 mg/kg/injection, schedule: Q01DX005 (ip), vehicle: sodium bicarbonate): 104 % of control
T/C (endpoint: mean survival time, dose: 0.5 mg/kg/injection, schedule: Q01DX005 (ip), vehicle: sodium bicarbonate): 119 % of control and 100 % of control
T/C (endpoint: mean survival time, dose: 1.0 mg/kg/injection, schedule: Q01DX005 (ip), vehicle: sodium bicarbonate): 113 % of control and 100 % of control
T/C (endpoint: mean survival time, dose: 2.0 mg/kg/injection, schedule: Q01DX005 (ip), vehicle: sodium bicarbonate): 98 % of control and 106 % of control
T/C (endpoint: mean survival time, dose: 4.0 mg/kg/injection, schedule: Q01DX005 (ip), vehicle: sodium bicarbonate): 91 % of control and 104 % of control
T/C (endpoint: mean survival time, dose: 16.0 mg/kg/injection, schedule: Q01DX005 (ip), vehicle: sodium bicarbonate): 98 % of control

Nc1c([N+](=O)[O-])ccc2ccccc12
T/C [4]: 95 % of control
T/C [1]: 93 % of control
T/C [5]: 93 % of control
T/C [2]: 93 % of control
T/C (endpoint: mean survival time, dose: 400.0 mg/kg/injection, schedule: Q01DX009 (ip), vehicle: saline with Tween-80): 92 % of control
T/C [3]: 92 % of control

CSc1ccnc2ccccc12
T/C [6]: 106 % of control
T/C [7]: 100 % of control
T/C (endpoint: mean survival time, dose: 50.0 mg/kg/injection, schedule: Q01DX009 (ip), vehicle: other): 103 % of control

OC1C2c3ccccc3C(c3c2ccc2ccccc32)C1O (configuration not stated)
T/C (endpoint: median survival time, dose: 25.0 mg/kg/injection, schedule: Q04DX003 (ip), vehicle: saline with Tween-80): 100 % of control
T/C (endpoint: median survival time, dose: 50.0 mg/kg/injection, schedule: Q04DX003 (ip), vehicle: saline with Tween-80): 100 % of control
T/C (endpoint: median survival time, dose: 100.0 mg/kg/injection, schedule: Q04DX003 (ip), vehicle: saline with Tween-80): 100 % of control
T/C (endpoint: median survival time, dose: 200.0 mg/kg/injection, schedule: Q04DX003 (ip), vehicle: saline with Tween-80): 88 % of control

Cc1ccc(CNc2cccnc2)cc1
T/C [1]: 98 % of control
T/C [2]: 93 % of control
T/C [3]: 95 % of control

CCCCCCCCCCCCCCCCCC(=O)OCC(=O)OCC(=O)[C@]1(O)Cc2c(O)c3c(c(O)c2[C@@H](OC2CC(N)C(O)C(C)O2)C1)C(=O)c1c(OC)cccc1C3=O (some centres not stated)
T/C (endpoint: mean survival time, dose: 0.37 mg/kg/injection, schedule: Q01DX009 (ip), vehicle: saline): 116 % of control
T/C (endpoint: mean survival time, dose: 0.39 mg/kg/injection, schedule: Q01DX005 (ip), vehicle: water): 122 % of control and 112 % of control
T/C (endpoint: mean survival time, dose: 0.75 mg/kg/injection, schedule: Q01DX009 (ip), vehicle: saline): 115 % of control
T/C (endpoint: mean survival time, dose: 0.78 mg/kg/injection, schedule: Q01DX005 (ip), vehicle: water): 118 % of control and 119 % of control
T/C (endpoint: mean survival time, dose: 1.5 mg/kg/injection, schedule: Q01DX009 (ip), vehicle: saline): 115 % of control
T/C (endpoint: mean survival time, dose: 3.13 mg/kg/injection, schedule: Q01DX005 (ip), vehicle: other): 152 % of control
T/C (endpoint: mean survival time, dose: 3.13 mg/kg/injection, schedule: Q01DX005 (ip), vehicle: water): 209 % of control
T/C (endpoint: mean survival time, dose: 6.25 mg/kg/injection, schedule: Q01DX005 (ip), vehicle: other): 156 % of control
T/C (endpoint: mean survival time, dose: 6.25 mg/kg/injection, schedule: Q01DX005 (ip), vehicle: water): 124 % of control
T/C (endpoint: mean survival time, dose: 12.0 mg/kg/injection, schedule: Q01DX009 (ip), vehicle: saline): 157 % of control
T/C (endpoint: mean survival time, dose: 12.5 mg/kg/injection, schedule: Q01DX005 (ip), vehicle: other): 90 % of control

CC(=O)N(/C=C\C=C\c1sc2ccccc2[n+]1C)c1ccccc1
T/C [6]: 108 % of control
T/C [7]: 115 % of control

O=C1C(Cl)=C(Nc2cccc(Cl)c2)C(=O)c2ccccc21
T/C (endpoint: mean survival time, dose: 100.0 mg/kg/injection, schedule: Q04DX002 (ip), vehicle: other): 90 % of control
T/C (endpoint: mean survival time, dose: 200.0 mg/kg/injection, schedule: Q04DX002 (ip), vehicle: other): 94 % of control
T/C (endpoint: mean survival time, dose: 400.0 mg/kg/injection, schedule: Q04DX002 (ip), vehicle: other): 105 % of control

O=C1CSc2nc3ccccc3n21
T/C (endpoint: mean survival time, dose: 100.0 mg/kg/injection, schedule: Q01DX009 (ip), vehicle: other): 98 % of control
T/C (endpoint: mean survival time, dose: 200.0 mg/kg/injection, schedule: Q01DX009 (ip), vehicle: other): 98 % of control
T/C (endpoint: mean survival time, dose: 400.0 mg/kg/injection, schedule: Q01DX009 (ip), vehicle: other): 105 % of control

COc1cc2c3c(c1O)-c1c(ccc(OC)c1OC)CC3N(C)CC2 (configuration not stated)
T/C (endpoint: mean survival time, dose: 100.0 mg/kg/injection, schedule: Q01DX001 (ip), vehicle: saline with Tween-80): 92 % of control
T/C (endpoint: mean survival time, dose: 200.0 mg/kg/injection, schedule: Q01DX001 (ip), vehicle: saline with Tween-80): 105 % of control
T/C (endpoint: mean survival time, dose: 400.0 mg/kg/injection, schedule: Q01DX001 (ip), vehicle: saline with Tween-80): 97 % of control

CSc1ccc(C)cn1 (tested in a mixture with another compound)
T/C [4]: 100 % of control
T/C [5]: 97 % of control

O=C(O)CC(CC(=O)O)C(=O)O.[NH-]C1CCCCC1[NH-].[Pt+2]
T/C (endpoint: median survival time, dose: 3.12 mg/kg/injection, schedule: Q04DX003 (ip), vehicle: Klucel (hydroxypropylcellulose) (HPC)): 112 % of control
T/C (endpoint: median survival time, dose: 3.12 mg/kg/injection, schedule: Q04DX003 (ip), vehicle: saline): 106 % of control
T/C (endpoint: median survival time, dose: 6.25 mg/kg/injection, schedule: Q04DX003 (ip), vehicle: Klucel (hydroxypropylcellulose) (HPC)): 112 % of control
T/C (endpoint: median survival time, dose: 6.25 mg/kg/injection, schedule: Q04DX003 (ip), vehicle: saline): 106 % of control
T/C (endpoint: median survival time, dose: 12.5 mg/kg/injection, schedule: Q04DX003 (ip), vehicle: Klucel (hydroxypropylcellulose) (HPC)): 122 % of control
T/C (endpoint: median survival time, dose: 12.5 mg/kg/injection, schedule: Q04DX003 (ip), vehicle: saline): 101 % of control and 109 % of control
T/C (endpoint: median survival time, dose: 25.0 mg/kg/injection, schedule: Q04DX003 (ip), vehicle: Klucel (hydroxypropylcellulose) (HPC)): 101 % of control
T/C (endpoint: median survival time, dose: 25.0 mg/kg/injection, schedule: Q04DX003 (ip), vehicle: saline): 118 % of control and 107 % of control
T/C (endpoint: median survival time, dose: 50.0 mg/kg/injection, schedule: Q04DX003 (ip), vehicle: Klucel (hydroxypropylcellulose) (HPC)): 103 % of control
T/C (endpoint: median survival time, dose: 50.0 mg/kg/injection, schedule: Q04DX003 (ip), vehicle: saline): 109 % of control
T/C (endpoint: median survival time, dose: 100.0 mg/kg/injection, schedule: Q04DX003 (ip), vehicle: Klucel (hydroxypropylcellulose) (HPC)): 109 % of control
T/C (endpoint: median survival time, dose: 100.0 mg/kg/injection, schedule: Q04DX003 (ip), vehicle: saline): 120 % of control and 110 % of control
T/C (endpoint: median survival time, dose: 200.0 mg/kg/injection, schedule: Q04DX003 (ip), vehicle: Klucel (hydroxypropylcellulose) (HPC)): 116 % of control
T/C (endpoint: median survival time, dose: 200.0 mg/kg/injection, schedule: Q04DX003 (ip), vehicle: saline): 113 % of control

O=S1(=O)OCCC1C(O)(c1ccccc1)c1ccccc1 (configuration not stated)
T/C (endpoint: mean survival time, dose: 75.0 mg/kg/injection, schedule: Q01DX009 (ip), vehicle: saline): 97 % of control
T/C (endpoint: mean survival time, dose: 75.0 mg/kg/injection, schedule: Q04DX003 (ip), vehicle: saline): 100 % of control
T/C (endpoint: mean survival time, dose: 150.0 mg/kg/injection, schedule: Q01DX009 (ip), vehicle: saline): 103 % of control
T/C (endpoint: mean survival time, dose: 150.0 mg/kg/injection, schedule: Q04DX003 (ip), vehicle: saline): 97 % of control
T/C (endpoint: mean survival time, dose: 300.0 mg/kg/injection, schedule: Q01DX009 (ip), vehicle: saline): 100 % of control
T/C (endpoint: mean survival time, dose: 300.0 mg/kg/injection, schedule: Q04DX003 (ip), vehicle: saline): 97 % of control

Cc1c2ccccc2cc2cc[n+]3ccccc3c12
T/C (endpoint: mean survival time, dose: 10.0 mg/kg/injection, schedule: Q01DX009 (ip), vehicle: Klucel (hydroxypropylcellulose) (HPC)): 92 % of control
T/C (endpoint: mean survival time, dose: 20.0 mg/kg/injection, schedule: Q01DX009 (ip), vehicle: Klucel (hydroxypropylcellulose) (HPC)): 103 % of control
T/C (endpoint: mean survival time, dose: 40.0 mg/kg/injection, schedule: Q01DX009 (ip), vehicle: Klucel (hydroxypropylcellulose) (HPC)): 92 % of control

CC(=O)[O][Hg][CH]1CCCCC1O (configuration not stated)
T/C (endpoint: mean survival time, dose: 3.13 mg/kg/injection, schedule: Q01DX009 (ip), vehicle: saline + alcohol): 98 % of control
T/C (endpoint: mean survival time, dose: 6.25 mg/kg/injection, schedule: Q01DX009 (ip), vehicle: saline + alcohol): 108 % of control
